According to patent US6737383B1, “Herbicidal oxadiazolidines” (priority 1999, dated 2004):

Key:
[1] = system: surinam grass; test: Test B pre/postemergence surinam grass; format: in vivo, Brachiaria decumbens
In short: (§1)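 Response is a visual 0-to-10 score relative to untreated plants, where 0 means no effect and 10 means complete control, taken twelve to sixteen days after application. Treatments went onto soil at planting and onto foliage of 1- to 4-leaf plants, using a surfactant-containing non-phytotoxic solvent.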

[2] = system: corn; test: Test B pre/postemergence corn; format: in vivo, Zea mays
In short: as §1

[3] = system: wheat; test: Test B pre/postemergence wheat; format: in vivo, Triticum aestivum
In short: as §1

[4] = system: velvetleaf; test: Test B pre/postemergence velvetleaf; format: in vivo, Abutilon theophrasti
In short: as §1

[5] = system: bedstraw; test: Test B pre/postemergence bedstraw; format: in vivo, Galium aparine; settings: for Bedstraw plant response rating: 10 is complete control
In short: as §1

[6] = system: cocklebur; test: Test B pre/postemergence cocklebur; format: in vivo, Xanthium strumarium
In short: as §1

[7] = system: soybean; test: Test B pre/postemergence soybean; format: in vivo, Glycine max
In short: as §1

[8] = system: sugar beet; test: Test B pre/postemergence sugar beet; format: in vivo, Beta vulgaris
In short: as §1

[9] = system: morningglory; test: Test B pre/postemergence morningglory; format: in vivo, Ipomoea hederacea
In short: as §1

[10] = system: giant foxtail; test: Test B pre/postemergence giant foxtail; format: in vivo, Setaria faberii
In short: as §1

[11] = system: crabgrass; test: Test B pre/postemergence crabgrass; format: in vivo, Digitaria sanguinalis
In short: as §1

[12] = system: wild oat; test: Test B pre/postemergence wild oat; format: in vivo, Avena fatua
In short: as §1

[13] = system: pigweed; test: Test B pre/postemergence pigweed; format: in vivo, Amaranthus retroflexus
In short: as §1

[14] = system: blackgrass; test: Test B pre/postemergence blackgrass; format: in vivo, Alopecurus myosuroides
In short: as §1

[15] = system: rape; test: Test B pre/postemergence rape; format: in vivo, Brassica napus
In short: as §1

[16] = system: purple nutsedge; test: Test B pre/postemergence purple nutsedge; format: in vivo, Cyperus rotundus
In short: as §1

[17] = Postemergence, Rate 62 g/ha, scale of 0 to 10, 0 is no effect, 10 is complete control
[18] = Postemergence, Rate 125 g/ha, scale 0 to 10, 0 is no effect, 10 is complete control
[19] = Postemergence, Rate 500 g/ha, scale 0 to 10, 0 is no effect, 10 is complete control
[20] = Preemergence, Rate 62 g/ha, scale of 0 to 10 where 0 is no effect and 10 is complete control
[21] = Preemergence, Rate 125 g/ha, scale 0 to 10, 0 is no effect, 10 is complete control
[22] = Rate 250 g/ha, Postemergence, scale of 0 to 10 where 0 is no effect and 10 is complete control
[23] = Preemergence, Rate 500 g/ha, scale of 0 to 10 where 0 is no effect and 10 is complete control

SMILES: CCC=CCn1c(=O)on(C(=O)N(c2ccc(F)cc2F)C(C)C)c1=O [Compound 523]
- B. signalgrass plant response rating [1, 17]: 0
- B. signalgrass plant response rating [1, 18]: 0
- Plant response rating, B. signalgrass [1, 19]: 7
- Plant response rating, B. signalgrass [1, 20]: 4
- B. signalgrass plant response rating [1, 21]: 8
- B. signalgrass plant response rating (0 to 10 scale, 0 is no effect, 10 is complete control) ([1]; Preemergence, Rate 250 g/ha): 9
- B. signalgrass plant response rating ([1]; Preemergence, Rate 500 g/ha, scale 0 to 10, 0 is no effect, 10 is complete control): 5
- Plant response rating, B. signalgrass [1, 22]: 2
- Corn plant response rating [2, 17]: 0
- Corn plant response rating [2, 18]: 0
- Plant response rating, Corn [2, 19]: 2
- Plant response rating, Corn [2, 20]: 0
- Corn plant response rating [2, 21]: 0
- Corn plant response rating (0 to 10 scale) ([2]; Preemergence, Rate 250 g/ha): 0
- Corn plant response rating [2, 23]: 9
- Plant response rating, Corn [2, 22]: 2
- Wheat plant response rating [3, 17]: 0
- Wheat plant response rating [3, 18]: 0
- Plant response rating, Wheat [3, 19]: 2
- Plant response rating, Wheat [3, 20]: 0
- Wheat plant response rating [3, 21]: 0
- Wheat plant response rating (0 to 10 scale) ([3]; Preemergence, Rate 250 g/ha): 0
- Wheat plant response rating [3, 23]: 4
- Plant response rating, Wheat [3, 22]: 0
- Velvetleaf plant response rating [4, 17]: 0
- Velvetleaf plant response rating [4, 18]: 3
- Plant response rating, Velvetleaf [4, 19]: 4
- Plant response rating, Velvetleaf [4, 20]: 0
- Velvetleaf plant response rating [4, 21]: 2
- Velvetleaf plant response rating (0 to 10 scale) ([4]; Preemergence, Rate 250 g/ha): 2
- Velvetleaf plant response rating [4, 23]: 5
- Plant response rating, Velvetleaf [4, 22]: 3
- Bedstraw plant response rating ([5]; Postemergence, Rate 62 g/ha, scale of 0 to 10, 0 is no effect): 0
- Bedstraw plant response rating ([5]; Postemergence, Rate 125 g/ha, scale 0 to 10, 0 is no effect): 0
- Plant response rating, Bedstraw [5, 20]: 0
- Bedstraw plant response rating ([5]; Preemergence, Rate 125 g/ha, scale 0 to 10, 0 is no effect): 0
- Bedstraw plant response rating (0 to 10 scale) ([5]; Preemergence, Rate 250 g/ha): 0
- Bedstraw plant response rating ([5]; Preemergence, Rate 500 g/ha, scale 0 to 10, 0 is no effect): 0
- Cocklebur plant response rating [6, 17]: 0
- Cocklebur plant response rating [6, 18]: 2
- Plant response rating, Cocklebur [6, 19]: 2
- Plant response rating, Cocklebur [6, 20]: 0
- Cocklebur plant response rating [6, 21]: 0
- Cocklebur plant response rating (0 to 10 scale) ([6]; Preemergence, Rate 250 g/ha): 0
- Cocklebur plant response rating [6, 23]: 0
- Plant response rating, Cocklebur [6, 22]: 2
- Soybean plant response rating [7, 17]: 4
- Soybean plant response rating [7, 18]: 5
- Plant response rating, Soybean [7, 19]: 5
- Plant response rating, Soybean [7, 20]: 0
- Soybean plant response rating [7, 21]: 0
- Soybean plant response rating (0 to 10 scale) ([7]; Preemergence, Rate 250 g/ha): 0
- Soybean plant response rating [7, 23]: 0
- Plant response rating, Soybean [7, 22]: 5
- Sugarbeets plant response rating [8, 17]: 0
- Sugarbeets plant response rating [8, 18]: 0
- Plant response rating, Sugarbeets [8, 19]: 0
- Plant response rating, Sugarbeets [8, 20]: 3
- Sugarbeets plant response rating [8, 21]: 4
- Sugarbeets plant response rating (0 to 10 scale) ([8]; Preemergence, Rate 250 g/ha): 7
- Sugarbeets plant response rating [8, 23]: 9
- Plant response rating, Sugarbeets [8, 22]: 0
- Morningglory plant response rating [9, 17]: 2
- Morningglory plant response rating [9, 18]: 3
- Plant response rating, Morningglory [9, 19]: 4
- Plant response rating, Morningglory [9, 20]: 2
- Morningglory plant response rating [9, 21]: 4
- Morningglory plant response rating (0 to 10 scale) ([9]; Preemergence, Rate 250 g/ha): 0
- Morningglory plant response rating [9, 23]: 0
- Plant response rating, Morningglory [9, 22]: 4
- Giant foxtail plant response rating [10, 17]: 2
- Giant foxtail plant response rating [10, 18]: 2
- Plant response rating, Giant foxtail [10, 19]: 6
- Plant response rating, Giant foxtail [10, 20]: 10
- Giant foxtail plant response rating [10, 21]: 10
- Giant foxtail plant response rating (0 to 10 scale) ([10]; Preemergence, Rate 250 g/ha): 10
- Giant foxtail plant response rating [10, 23]: 10
- Plant response rating, Giant foxtail [10, 22]: 4
- Crabgrass plant response rating [11, 17]: 3
- Crabgrass plant response rating [11, 18]: 8
- Plant response rating, Crabgrass [11, 19]: 10
- Plant response rating, Crabgrass [11, 20]: 9
- Crabgrass plant response rating [11, 21]: 10
- Crabgrass plant response rating (0 to 10 scale) ([11]; Preemergence, Rate 250 g/ha): 10
- Crabgrass plant response rating [11, 23]: 10
- Plant response rating, Crabgrass [11, 22]: 6
- Wild oats plant response rating [12, 17]: 0
- Wild oats plant response rating [12, 18]: 0
- Plant response rating, Wild oats [12, 19]: 2
- Plant response rating, Wild oats [12, 20]: 0
- Wild oats plant response rating [12, 21]: 0
- Wild oats plant response rating (0 to 10 scale) ([12]; Preemergence, Rate 250 g/ha): 0
- Wild oats plant response rating [12, 23]: 0
- Plant response rating, Wild oats [12, 22]: 0
- Redroot pigweed plant response rating [13, 17]: 0
- Redroot pigweed plant response rating [13, 18]: 2
- Plant response rating, Redroot pigweed [13, 19]: 3
- Plant response rating, Redroot pigweed [13, 20]: 2
- Redroot pigweed plant response rating [13, 21]: 9
- Redroot pigweed plant response rating (0 to 10 scale) ([13]; Preemergence, Rate 250 g/ha): 9
- Redroot pigweed plant response rating [13, 23]: 9
- Plant response rating, Redroot pigweed [13, 22]: 3
- Blackgrass plant response rating [14, 17]: 0
- Blackgrass plant response rating [14, 18]: 0
- Plant response rating, Blackgrass [14, 19]: 4
- Plant response rating, Blackgrass [14, 20]: 2
- Blackgrass plant response rating [14, 21]: 4
- Blackgrass plant response rating (0 to 10 scale) ([14]; Preemergence, Rate 250 g/ha): 7
- Blackgrass plant response rating [14, 23]: 7
- Plant response rating, Blackgrass [14, 22]: 3
- Rape plant response rating [15, 17]: 0
- Rape plant response rating [15, 18]: 0
- Plant response rating, Rape [15, 19]: 2
- Plant response rating, Rape [15, 20]: 0
- Rape plant response rating [15, 21]: 0
- Rape plant response rating (0 to 10 scale) ([15]; Preemergence, Rate 250 g/ha): 4
- Rape plant response rating [15, 23]: 7
- Plant response rating, Rape [15, 22]: 2
- Nutsedge plant response rating [16, 17]: 0
- Nutsedge plant response rating [16, 18]: 0
- Plant response rating, Nutsedge [16, 19]: 0
- Plant response rating, Nutsedge [16, 20]: 0
- Nutsedge plant response rating [16, 21]: 0
- Nutsedge plant response rating (0 to 10 scale) ([16]; Preemergence, Rate 250 g/ha): 0
- Nutsedge plant response rating [16, 23]: 0
- Plant response rating, Nutsedge [16, 22]: 0
